Patent publication US20130101530A1, “ANTIMICROBIAL PRESERVATIVE COMPOSITIONS FOR PERSONAL CARE PRODUCTS” (GALAXY SURFACTANTS LTD., priority 2011, published 2013)
In brackets after ≈: the same amount, converted by molar mass. Read-outs that look alike come from different tables or passages of the source.

Key:
Type in all cases: cell-based
[1] = system: Staphylococcus aureus ATCC 6538S; assay: Minimum inhibitory concentration; conditions: for MIC: ATCC6538S
[2] = system: Pseudomonas aeruginosa Immuno type IV; assay: Minimum inhibitory concentration
[3] = system: Escherichia coli ATCC 10142; assay: Minimum inhibitory concentration
[4] = system: Bacillus subtilis ATCC 9372; assay: microbe, parasite or virus in culture; conditions: for MIC: ATCC9372
[5] = system: Malassezia furfur MTCC 1374; assay: Minimum inhibitory concentration
[6] = system: Aspergillus niger ATCC 16404; assay: Minimum inhibitory concentration
[7] = system: Propionibacterium acnes MTCC 1951; assay: Minimum inhibitory concentration; conditions: for MIC: Cutibacterium acnes
[8] = system: Candida albicans ATCC 10231; assay: Minimum inhibitory concentration
[9] = system: all types of microbes (Gram positive, Gram negative bacteria, yeast and mould; the chosen eight organisms); assay: Minimum inhibitory concentration, whole panel
[10] = Bacillus subtilis ATCC 9372, read-out: MINIMUM INHIBITORY CONCENTRATION
[11] = in Preservative Blend No 1 (10:10:80), Bacillus subtilis, read-out: Concentration of individual component at MIC of Preservative Blend No 1

For `C=CCCCCCCCCC(=O)NCCO` [Undecylenoyl MEA amide, N-undecylenoyl monoethanol amide], the “MINIMUM INHIBITORY CONCENTRATION” value ([1]; Staphylococcus aureus ATCC 6538S) was over 10000 ppm, the “Concentration of individual component at MIC of Preservative Blend No 1” value (“Concentration … of Preservative Blend No 1” for short) ([1]; in Preservative Blend No 1 (10:10:80), Staphylococcus aureus) was 200 ppm and the “Concentration of individual component at MIC of Preservative Blend No 2” value (shortened to “Concentration … of Preservative Blend No 2”) ([1]; in Preservative Blend No 2 (10:10:80), Staphylococcus aureus) was 300 ppm. The “MINIMUM INHIBITORY CONCENTRATION” value ([2]; Pseudomonas aeruginosa Immuno type IV) was over 10000 ppm, the “Concentration … of Preservative Blend No 1” value ([2]; in Preservative Blend No 1 (10:10:80), Pseudomonas aeruginosa) was 200 ppm and the “Concentration … of Preservative Blend No 2” value ([2]; in Preservative Blend No 2 (10:10:80), Pseudomonas aeruginosa) was 300 ppm. The “MINIMUM INHIBITORY CONCENTRATION” value ([3]; Escherichia coli ATCC 10142) was over 10000 ppm, the “Concentration … of Preservative Blend No 1” value ([3]; in Preservative Blend No 1 (10:10:80), Escherichia coli) was 200 ppm and the “Concentration … of Preservative Blend No 2” value ([3]; in Preservative Blend No 2 (10:10:80), Escherichia coli) was 300 ppm. For the same compound, the “MINIMUM INHIBITORY CONCENTRATION” value ([4]; Bacillus subtilis ATCC 9372) was over 10000 ppm, the “Concentration … of Preservative Blend No 1” value ([4]; in Preservative Blend No 1 (10:10:80), Bacillus subtilis) was 200 ppm and the “Concentration … of Preservative Blend No 2” value ([4]; in Preservative Blend No 2 (10:10:80), Bacillus subtilis) was 200 ppm. For the same compound, the “MINIMUM INHIBITORY CONCENTRATION” value ([5]; Malassezia furfur MTCC 1374) was over 10000 ppm, the “Concentration … of Preservative Blend No 1” value ([5]; in Preservative Blend No 1 (10:10:80), Malassezia furfur) was 400 ppm and the “Concentration … of Preservative Blend No 2” value ([5]; in Preservative Blend No 2 (10:10:80), Malassezia furfur) was 400 ppm. For the same compound, the “MINIMUM INHIBITORY CONCENTRATION” value ([6]; Aspergillus niger) was over 10000 ppm, the “Concentration … of Preservative Blend No 1” value ([6]; in Preservative Blend No 1 (10:10:80); Aspergillus niger) was 300 ppm and the “Concentration … of Preservative Blend No 2” value ([6]; in Preservative Blend No 2 (10:10:80); Aspergillus niger) was 200 ppm. The “MINIMUM INHIBITORY CONCENTRATION” value ([7]; Propionibacterium acnes MTCC 1951) was over 10000 ppm, the “Concentration … of Preservative Blend No 1” value ([7]; in Preservative Blend No 1 (10:10:80), Propionibacterium acnes) was 300 ppm and the “Concentration … of Preservative Blend No 2” value ([7]; in Preservative Blend No 2 (10:10:80), Propionibacterium acnes) was 200 ppm. The “MINIMUM INHIBITORY CONCENTRATION” value ([8]; Candida albicans ATCC 10231) was over 10000 ppm, the “Concentration … of Preservative Blend No 1” value ([8]; in Preservative Blend No 1 (10:10:80), Candida albicans) was 300 ppm and the “Concentration … of Preservative Blend No 2” value ([8]; in Preservative Blend No 2 (10:10:80), Candida albicans) was 200 ppm. For the same compound, the “Concentration needed for activity of the ingredient by itself against the broad range of microbes” value ([9]; ingredient alone, octanoyl glycine tested at neutral pH) was over 10000 ppm and the “Antimicrobial activity of the ingredient alone” value ([9]; up to 1.0% concentration, bacteria, yeast and mould) was “does not exhibit any antimicrobial activity”.
In the case of `CCCCCCCC(=O)NCC(=O)O` [Octanoyl Glycine, N-Octanoyl glycine], the MIC ([1]; Staphylococcus aureus ATCC 6538S, read-out: MINIMUM INHIBITORY CONCENTRATION) is reported as 3000 µg/mL (≈ 14.9 mM), the MIC ([1]; in Preservative Blend No 1 (10:10:80), Staphylococcus aureus, read-out: Concentration of individual component at MIC of Preservative Blend No 1) is reported as 200 µg/mL and the MIC ([2]; Pseudomonas aeruginosa Immuno type IV, read-out: MINIMUM INHIBITORY CONCENTRATION) is reported as 3000 µg/mL (≈ 14.9 mM). It also gave an MIC ([2]; in Preservative Blend No 1 (10:10:80), Pseudomonas aeruginosa, read-out: Concentration of individual component at MIC of Preservative Blend No 1) of 200 µg/mL, an MIC ([3]; ATCC10142, Escherichia coli ATCC 10142, read-out: MINIMUM INHIBITORY CONCENTRATION) of 3000 µg/mL (≈ 14.9 mM) and an MIC ([3]; ATCC10142, in Preservative Blend No 1 (10:10:80), Escherichia coli, read-out: Concentration of individual component at MIC of Preservative Blend No 1) of 200 µg/mL. For the same compound, the MIC [4, 10] was 3000 µg/mL (≈ 14.9 mM), the MIC [4, 11] was 200 µg/mL and the MIC ([5]; MTCC1374, Malassezia furfur MTCC 1374, read-out: MINIMUM INHIBITORY CONCENTRATION) was 3000 µg/mL (≈ 14.9 mM). It also gave an MIC ([5]; MTCC1374, in Preservative Blend No 1 (10:10:80), Malassezia furfur, read-out: Concentration of individual component at MIC of Preservative Blend No 1) of 400 µg/mL, an MIC ([6]; ATCC16404; in Preservative Blend No 1 (10:10:80); Aspergillus niger; read-out: Concentration of individual component at MIC of Preservative Blend No 1) of 300 µg/mL and an MIC ([6]; Aspergillus niger, ATCC16404; read-out: MINIMUM INHIBITORY CONCENTRATION) of 4000 µg/mL (≈ 19.9 mM). The MIC ([7]; MTCC1951, Propionibacterium acnes MTCC 1951, read-out: MINIMUM INHIBITORY CONCENTRATION) was 3000 µg/mL (≈ 14.9 mM), the MIC ([7]; MTCC1951, in Preservative Blend No 1 (10:10:80), Propionibacterium acnes, read-out: Concentration of individual component at MIC of Preservative Blend No 1) was 300 µg/mL and the MIC ([8]; ATCC10231, Candida albicans ATCC 10231, read-out: MINIMUM INHIBITORY CONCENTRATION) was 4000 µg/mL (≈ 19.9 mM). It also gave an MIC ([8]; ATCC10231, in Preservative Blend No 1 (10:10:80), Candida albicans, read-out: Concentration of individual component at MIC of Preservative Blend No 1) of 300 µg/mL.
For `OCCOc1ccccc1` [Phenoxy ethanol, 2-Phenoxy ethanol], the MIC ([1]; Staphylococcus aureus, read-out: Concentration of individual component at MIC of Preservative Blend No 1) was 1600 µg/mL, the MIC ([1]; Staphylococcus aureus, read-out: Concentration of individual component at MIC of Preservative Blend No 2) was 2400 µg/mL and the MIC ([1]; Staphylococcus aureus, read-out: MINIMUM INHIBITORY CONCENTRATION) was 8500 µg/mL (≈ 61.5 mM). For the same compound, the MIC ([2]; Pseudomonas aeruginosa, read-out: Concentration of individual component at MIC of Preservative Blend No 1) was 1600 µg/mL, the MIC ([2]; Pseudomonas aeruginosa, read-out: Concentration of individual component at MIC of Preservative Blend No 2) was 2400 µg/mL and the MIC ([2]; Pseudomonas aeruginosa, read-out: MINIMUM INHIBITORY CONCENTRATION) was 4000 µg/mL (≈ 29 mM). For the same compound, the MIC ([3]; Escherichia coli, ATCC10142, read-out: Concentration of individual component at MIC of Preservative Blend No 1) was 1600 µg/mL, the MIC ([3]; Escherichia coli, ATCC10142, read-out: Concentration of individual component at MIC of Preservative Blend No 2) was 2400 µg/mL and the MIC ([3]; Escherichia coli, ATCC10142, read-out: MINIMUM INHIBITORY CONCENTRATION) was 6000 µg/mL (≈ 43.4 mM). It also gave an MIC [4, 10] of 4000 µg/mL (≈ 29 mM), an MIC [4, 11] of 1600 µg/mL and an MIC ([4]; in Preservative Blend No 2 (10:10:80), Bacillus subtilis, read-out: Concentration of individual component at MIC of Preservative Blend No 2) of 1600 µg/mL. The MIC ([5]; Malassezia furfur, MTCC1374, read-out: Concentration of individual component at MIC of Preservative Blend No 1) was 3200 µg/mL, the MIC ([5]; Malassezia furfur, MTCC1374, read-out: Concentration of individual component at MIC of Preservative Blend No 2) was 3200 µg/mL and the MIC ([5]; Malassezia furfur, MTCC1374, read-out: MINIMUM INHIBITORY CONCENTRATION) was 4000 µg/mL (≈ 29 mM). For the same compound, the MIC ([6]; Aspergillus niger, ATCC16404, read-out: Concentration of individual component at MIC of Preservative Blend No 1) was 2400 µg/mL, the MIC ([6]; Aspergillus niger, ATCC16404, read-out: Concentration of individual component at MIC of Preservative Blend No 2) was 1600 µg/mL and the MIC ([6]; Aspergillus niger, ATCC16404, read-out: MINIMUM INHIBITORY CONCENTRATION) was 9000 µg/mL (≈ 65.1 mM). The “Concentration enough to kill the organism in combination with components [A] and [B]” value ([6]; in Preservative Blend No 1; Aspergillus) was “around 0.25%”, the MIC ([7]; MTCC1951, read-out: Concentration of individual component at MIC of Preservative Blend No 1) was 2400 µg/mL and the MIC ([7]; MTCC1951, read-out: Concentration of individual component at MIC of Preservative Blend No 2) was 1600 µg/mL. The MIC ([7]; MTCC1951, read-out: MINIMUM INHIBITORY CONCENTRATION) was 4000 µg/mL (≈ 29 mM), the MIC ([8]; Candida albicans, ATCC10231, read-out: Concentration of individual component at MIC of Preservative Blend No 1) was 2400 µg/mL and the MIC ([8]; Candida albicans, ATCC10231, read-out: Concentration of individual component at MIC of Preservative Blend No 2) was 1600 µg/mL. The MIC ([8]; Candida albicans, ATCC10231, read-out: MINIMUM INHIBITORY CONCENTRATION) was 6000 µg/mL (≈ 43.4 mM), the “Concentration enough to kill the organism in combination with components [A] and [B]” value ([8]; in Preservative Blend No 1, Candida) was “around 0.25%” and the “Activity against yeast and mould” value ([9]; ingredient alone, Aspergillus and Candida) was “virtually no activity”. The Activity against bacteria ([9]; ingredient alone, particularly Gram positive) was “weak activity”.
